Our source for the IC50 values is US20250136570A1 (Tango Therapeutics, Inc., priority 2021, published 2025).

The structures appear in SMILES notation.

One experiment concerns the target HDAC3/NCor2 (Homo sapiens (Human), UniProt O15379). The experiment in a line: HDAC3 inhibition, Fluor de Lys fluorescent enzyme assay. As to conditions: 3 hours pre-incubation at room temp; 1.2 nM enzyme; 16 μM Fluor de Lys substrate; duplicate. In kind it is biochemical. The method, boiled down:
(§1)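 Enzyme (HDAC1 6 nM, HDAC3/NCor2 1.2 nM final) pre-incubated with compound 3 h at ~22 °C in Tris pH 8 buffer with 0.01% BSA. Reaction run 1 h with 16 μM Fluor de Lys substrate and stopped with TSA-containing developer. Fluorescence read at Ex 360/Em 460; IC50 from an occupancy equation with Hill coefficient, in duplicate.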

A further experiment has as its target Recombinant HDAC1 (Homo sapiens (Human), UniProt Q13547). The experiment can be described thus: HDAC1 inhibition, Fluor de Lys fluorescent enzyme assay. The conditions noted are these: 3 hours pre-incubation at room temp; 6 nM enzyme; 16 μM Fluor de Lys substrate; duplicate. It counts as biochemical. The method, boiled down:
as §1

Sequence of HDAC3/NCor2 (O15379 whole entry): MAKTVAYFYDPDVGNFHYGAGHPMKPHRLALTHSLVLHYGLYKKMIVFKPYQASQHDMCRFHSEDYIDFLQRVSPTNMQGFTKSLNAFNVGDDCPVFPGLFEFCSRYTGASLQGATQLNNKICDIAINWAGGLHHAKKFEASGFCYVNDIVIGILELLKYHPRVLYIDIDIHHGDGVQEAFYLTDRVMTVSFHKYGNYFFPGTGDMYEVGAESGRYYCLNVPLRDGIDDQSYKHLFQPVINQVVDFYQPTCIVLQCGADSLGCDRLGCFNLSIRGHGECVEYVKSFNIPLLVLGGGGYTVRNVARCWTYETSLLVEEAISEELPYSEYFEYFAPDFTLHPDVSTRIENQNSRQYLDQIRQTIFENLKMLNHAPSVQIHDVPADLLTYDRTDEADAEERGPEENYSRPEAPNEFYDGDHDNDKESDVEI
Sequence of HDAC3/NCor2 (Q9Y618 395-489 partner): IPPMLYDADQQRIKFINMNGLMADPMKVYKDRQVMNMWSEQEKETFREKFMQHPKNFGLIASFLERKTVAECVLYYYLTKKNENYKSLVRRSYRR
Sequence of Recombinant HDAC1 (Q13547 whole entry): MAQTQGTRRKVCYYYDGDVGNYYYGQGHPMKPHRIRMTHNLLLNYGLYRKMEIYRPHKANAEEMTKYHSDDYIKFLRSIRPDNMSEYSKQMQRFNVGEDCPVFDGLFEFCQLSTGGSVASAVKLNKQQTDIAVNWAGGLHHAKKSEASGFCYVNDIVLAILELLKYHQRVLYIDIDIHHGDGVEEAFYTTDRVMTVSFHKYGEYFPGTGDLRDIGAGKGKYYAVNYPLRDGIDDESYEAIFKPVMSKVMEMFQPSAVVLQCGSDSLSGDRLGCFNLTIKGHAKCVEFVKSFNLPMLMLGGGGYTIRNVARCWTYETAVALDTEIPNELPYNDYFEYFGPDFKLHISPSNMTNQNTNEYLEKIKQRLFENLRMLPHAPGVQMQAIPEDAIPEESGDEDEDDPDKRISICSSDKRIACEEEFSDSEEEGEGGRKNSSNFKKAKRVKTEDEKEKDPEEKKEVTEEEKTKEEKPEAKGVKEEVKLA

With `Cc1ccc(S(=N)(=O)c2ccc(C(=O)Nc3cc(-c4ccc(F)cc4)ccc3N)cc2)nc1` (centres unmarked) [Compound 231, N-[2-amino-5-(4-fluorophenyl)phenyl]-4-[(5-methyl-2-pyridyl)sulfonimidoyl]benzamide], the IC50 was 500 to 2000 nM on HDAC3/NCor2 and less than 100 nM on Recombinant HDAC1.
The corresponding values for `N=[S@](=O)(c1ccc(C(=O)Nc2cc(-c3ccc(F)s3)ccc2N)cc1)C1CC1` (single isomer, unassigned) [Compound 131] are 500 to 2000 nM and less than 100 nM.
The like results for `CS(=N)(=O)Cc1ccc2oc(C(=O)Nc3cc(-c4ccc(F)cc4)ccc3N)cc2c1` (centres unmarked) [Compound 170, N-[2-amino-5-(4-fluorophenyl)phenyl]-5-[(methylsulfonimidoyl)methyl]benzofuran-2-carboxamide] were, in that order, 500 to 2000 nM and less than 100 nM.
The like results for `CC1CCS(=O)(c2ccc(C(=O)Nc3cc(-c4ccc(F)cc4)ccc3N)cc2)=N1` (centres unmarked) [Compound 244] were, in that order, greater than 2000 nM and less than 100 nM.
`CS(=N)(=O)c1ccc(C(=O)Nc2cc(-c3cccs3)ccc2N)cn1` (centres unmarked) [Compound 110, N-[2-amino-5-(2-thienyl)phenyl]-6-(methylsulfonimidoyl)pyridine-3-carboxamide]: the 50% inhibitory concentration (IC50) on HDAC3/NCor2 was 500 to 2000 nM; at Recombinant HDAC1, less than 100 nM.
The like results for `Cc1ccncc1S(=N)(=O)c1ccc(C(=O)Nc2cc(-c3ccc(F)cc3)ccc2N)cc1` (centres unmarked) [Compound 198, N-[2-amino-5-(4-fluorophenyl)phenyl]-4-[(4-methyl-3-pyridyl)sulfonimidoyl]benzamide] were, in that order, 500 to 2000 nM and less than 100 nM.
The corresponding values for `N=S(=O)(c1ccc(C(=O)Nc2cc(-c3ccc(F)cc3)ccc2N)cc1)c1cccnn1` (centres unmarked) [Compound 174, N-[2-amino-5-(4-fluorophenyl)phenyl]-4-(pyridazin-3-ylsulfonimidoyl)benzamide] are 500 to 2000 nM and less than 100 nM.
The like results for `N=[S@@](=O)(c1ccc(C(=O)Nc2cc(-c3ccc(F)cc3)ccc2N)cc1)C1CC1` (single isomer, unassigned) [Compound 146] were, in that order, 500 to 2000 nM and less than 100 nM.
Regarding `N=S(=O)(c1ccc(C(=O)Nc2cc(-c3ccc(F)cc3F)ccc2N)cc1)C1CC1` (centres unmarked) [Compound 118, N-[2-amino-5-(2,4-difluorophenyl)phenyl]-4-(cyclopropylsulfonimidoyl)benzamide], the IC50 against HDAC3/NCor2 was 500 to 2000 nM; at Recombinant HDAC1, less than 100 nM.
The corresponding values for `CS(=N)(=O)c1cc2cc(C(=O)Nc3cc(-c4ccc(F)cc4)ccc3N)ccc2o1` (centres unmarked) [Compound 248, N-[2-amino-5-(4-fluorophenyl)phenyl]-2-(methylsulfonimidoyl)benzofuran-5-carboxamide] are 500 to 2000 nM and less than 100 nM.
The like results for `CS(=N)(=O)c1cc2ccc(C(=O)Nc3cc(-c4ccc(F)cc4)ccc3N)cc2s1` (centres unmarked) [Compound 236, N-[2-amino-5-(4-fluorophenyl)phenyl]-2-(methylsulfonimidoyl)benzothiophene-6-carboxamide] were, in that order, 100 to 500 nM and less than 100 nM.
The corresponding values for `CC(C)(C)C(=O)N=S(C)(=O)c1ccc(C(=O)Nc2cc(-c3cccs3)ccc2N)cc1` (centres unmarked) [Compound 125, N-[2-amino-5-(2-thienyl)phenyl]-4-[N-(2,2-dimethylpropanoyl)-S-methyl-sulfonimidoyl]benzamide] are 500 to 2000 nM and less than 100 nM.
As for `Cc1ncc(-c2ccc(N)c(NC(=O)c3ccc(S(C)(=N)=O)cc3)c2)s1` (centres unmarked) [Compound 156, N-[2-amino-5-(2-methylthiazol-5-yl)phenyl]-4-(methylsulfonimidoyl)benzamide], the results for the 50% inhibitory concentration (IC50) against HDAC3/NCor2 and at Recombinant HDAC1 were greater than 2000 nM and 100 to 500 nM, respectively.
The like results for `CS(=N)(=O)c1ccc(C(=O)Nc2cc(-c3cccs3)ccc2N)nc1` (centres unmarked) [Compound 113, N-[2-amino-5-(2-thienyl)phenyl]-5-(methylsulfonimidoyl)pyridine-2-carboxamide] were, in that order, 500 to 2000 nM and less than 100 nM.
The like results for `N=S(=O)(c1ccc(F)cc1)c1ccc(C(=O)Nc2cc(-c3ccc(F)cc3)ccc2N)cc1` (centres unmarked) [Compound 214, N-[2-amino-5-(4-fluorophenyl)phenyl]-4-[(4-fluorophenyl)sulfonimidoyl]benzamide] were, in that order, 500 to 2000 nM and less than 100 nM.
On to `CCN=S(C)(=O)c1ccc(C(=O)Nc2cc(-c3cccs3)ccc2N)cc1` (centres unmarked) [Compound 141, N-[2-amino-5-(2-thienyl)phenyl]-4-(N-ethyl-S-methyl-sulfonimidoyl)benzamide], for which the IC50 on HDAC3/NCor2 is 500 to 2000 nM; on Recombinant HDAC1, less than 100 nM.
With `CS(=N)(=O)c1cnc2cc(C(=O)Nc3cc(-c4ccc(F)cc4)ccc3N)sc2c1` (centres unmarked) [Compound 200, N-[2-amino-5-(4-fluorophenyl)phenyl]-6-(methylsulfonimidoyl)thieno[3,2-b]pyridine-2-carboxamide], the half-inhibitory concentration (IC50) against HDAC3/NCor2 is 500 to 2000 nM; at Recombinant HDAC1, less than 100 nM.
For the compound `CS(=N)(=O)c1cnc(C(=O)Nc2cc(-c3ccc(F)cc3)ccc2N)s1` (centres unmarked) [Compound 188, N-[2-amino-5-(4-fluorophenyl)phenyl]-5-(methylsulfonimidoyl)thiazole-2-carboxamide], the IC50 against HDAC3/NCor2 is 500 to 2000 nM; on Recombinant HDAC1, less than 100 nM.
The corresponding values for `N=S(=O)(c1ccc(C(=O)Nc2cc(-c3ccc(F)cc3)ccc2N)cc1)C1CC1` (racemic) [Compound 111, rac-N-[2-amino-5-(4-fluorophenyl)phenyl]-4-(cyclopropylsulfonimidoyl)benzamide] are 500 to 2000 nM and less than 100 nM.
The corresponding values for `N=[S@@](=O)(c1ccc(C(=O)Nc2cc(-c3ccc(F)cc3)ccc2N)cc1)c1cncnc1` (single isomer, unassigned) [Compound 181] are 500 to 2000 nM and less than 100 nM.
Turning to `CCS(=N)(=O)c1ccc(C(=O)Nc2cc(-c3ccc(F)cc3)ccc2N)cc1` (centres unmarked) [Compound 194, N-[2-amino-5-(4-fluorophenyl)phenyl]-4-(ethylsulfonimidoyl)benzamide], the results for the 50% inhibitory concentration (IC50) against HDAC3/NCor2 and on Recombinant HDAC1 were 500 to 2000 nM and less than 100 nM, respectively.
The corresponding values for `CS(=N)(=O)c1ccc(C(=O)Nc2cc(-c3ccc(C(N)=O)s3)ccc2N)cc1` (centres unmarked) [Compound 176, 5-[4-amino-3-[[4-(methylsulfonimidoyl)benzoyl]amino]phenyl]thiophene-2-carboxamide] are greater than 2000 nM and greater than 2000 nM.
The like results for `Cc1nc[nH]c1S(=N)(=O)c1ccc(C(=O)Nc2cc(-c3ccc(F)cc3)ccc2N)cc1` (centres unmarked) [Compound 209, N-[2-amino-5-(4-fluorophenyl)phenyl]-4-[(4-methyl-1H-imidazol-5-yl)sulfonimidoyl]benzamide] were, in that order, 100 to 500 nM and less than 100 nM.
The like results for `Cc1cnc(S(=N)(=O)c2ccc(C(=O)Nc3cc(-c4ccc(F)cc4)ccc3N)cc2)[nH]1` (centres unmarked) [Compound 228, N-[2-amino-5-(4-fluorophenyl)phenyl]-4-[(5-methyl-1H-imidazol-2-yl)sulfonimidoyl]benzamide] were, in that order, 100 to 500 nM and less than 100 nM.
As to `N=S(=O)(c1ccc(C(=O)Nc2cc(-c3ccc(F)s3)ccc2N)cc1)C1CC1` (racemic) [Compound 127, rac-N-[2-amino-5-(5-fluoro-2-thienyl)phenyl]-4-(cyclopropylsulfonimidoyl)benzamide], the IC50 against HDAC3/NCor2 is 500 to 2000 nM; on Recombinant HDAC1 it was less than 100 nM.

Usually IC50 stands for the concentration that gives 50% inhibition.
